In patent US11819511B2, “Composition of N-palmitoyl-ethanolamide and Rutin in co-micronized form” (EPITECH GROUP S.P.A, priority 2019, dated 2023):

Tests used:
[1] = test system: thoracic aorta rings exposed to peroxynitrite; experiment: Ex vivo vascular reactivity: endothelium-dependent release of thoracic aorta rings from acetylcholine, after complete ligation of the left carotid artery and 14 days of treatment; assay type: in vivo, C57Bl/6 strain mice; conditions: aorta rings collected day 14, exposed to peroxynitrite 1 mM, per os once a day for 14 days
Method: (§1) (as described by Q.Xu “Mouse models of arteriosclerosis: from arterial injuries to vascular grafts” Am J Pathol. (2014); 165(1):1-10). […] Cuzzocrea et al “Superoxide: a key player in hypertension” FASEB J. […] In particular, the ex vivo measurement of vascular reactivity is carried out with the following procedures: Adult mice of the C57Bl/6 strain weighing 25-30 g are used (Envigo-Italy). The groups of animals on which the evaluations were carried out (10 animals per group) were the following: • Group 1—Animals treated per os with 10 mg/kg of co-micronized palmitoyl-ethanolamide: […] Rutin in a 1:1 ratio, suspended in 1% carboxymethylcellulose solution and with the addition of 0.5 mg/kg of pure hydroxytyrosol in the final solution. At the end of the treatments, the thoracic aortas of the animals are taken and adequately cleaned of the adherent peri-adventitious fat and 3-4 mm rings are cut out. The rings are placed in Krebs solution at pH 7.4 (Krebs solution composition: NaCl 118 mM; KCl 4.7 mM; KH2PO4 1.2 mM; CaCl2 2.5 mM; MgSO4 1.2 mM; NaHCO3 25 mM; glucose 11.7 mM). […] A voltage of 1 g is applied, and the Krebs solution is exchanged every 15 minutes. The aorta rings are exposed to a concentration of peroxynitrile 1 mM.

[2] = test system: thoracic aorta rings exposed to peroxynitrite; experiment: Ex vivo vascular reactivity: contraction of thoracic aorta rings from norepinephrine, after complete ligation of the left carotid artery and 14 days of treatment; assay type: in vivo, C57Bl/6 strain mice; conditions: aorta rings collected day 14, exposed to peroxynitrite 1 mM, per os once a day for 14 days
Method: as §1

[3] = Trolox equivalent; cited from earlier work

Compound	Vascular Tone-% of Pre-Contraction from Acetylcholine ([1]; Acetylcholine 0.1 μM) [%]	Vascular Tone-% of Pre-Contraction from Acetylcholine ([1]; Acetylcholine 1.0 μM) [%]	Vascular Tone-% of Pre-Contraction from Acetylcholine ([1]; Acetylcholine 10.0 μM) [%]	Contraction (g) from Norepinephrine ([2]; Norepinephrine 100 nM) [g]	Contraction (g) from Norepinephrine ([2]; Norepinephrine 1,000 nM) [g]	Contraction (g) from Norepinephrine ([2]; Norepinephrine 10,000 nM) [g]	ORAC (Oxygen Radical Absorbance Capacity) index [3]
CCCCCCCCCCCCCCCC(=O)NCCO [Group 2, palmitoyl-ethanolamide]	99	94	85	0.20	0.40	0.70	
C[C@@H]1O[C@@H](OC[C@H]2O[C@@H](Oc3c(-c4ccc(O)c(O)c4)oc4cc(O)cc(O)c4c3=O)[C@H](O)[C@@H](O)[C@@H]2O)[C@H](O)[C@H](O)[C@H]1O [Group 3, Rutin]	100	96	81	0.20	0.40	0.70	
OCCc1ccc(O)c(O)c1 [hydroxytyrosol, 1-(2-hydroxy)ethyl-3,4-dihydroxybenzene]							40,000 μmolTE/g
